Experimental data reported in ChEMBL document CHEMBL4190339, “Design, synthesis and preliminary biological evaluation of new [1,2,3]triazolo[4,5-d]pyrimidine/thiourea hybrids as antiproliferative agents” (Eur J Med Chem, 2017).

What follows are compounds tested on ECa-109 cell line (assay: Antiproliferative activity against human EC109 cells after 48 hrs by MTT assay). Conditions: ECa-109, 48 h.
Format: functional, cell-based
With CCCSc1nc(NCCNC(=S)Nc2ccccc2)c2nnn(CCc3ccccc3)c2n1 the IC50 was 37.2 µM. For CCCSc1nc(NCCNC(=S)Nc2cccnc2)c2nnn(CCc3ccccc3)c2n1, the IC50 was 4.99 µM. With CCCSc1nc(NCCNC(=S)Nc2ccccn2)c2nnn(CCc3ccccc3)c2n1 the IC50 was 5.41 µM. CCCSc1nc(NCCNC(=S)Nc2ccc(Cl)cc2)c2nnn(CCc3ccccc3)c2n1 was tested, and the IC50 was 10.6 µM. Compound CCCSc1nc(NCCNC(=S)Nc2cccnc2)c2nnn(CCO)c2n1 has an IC50 of 18.2 µM.

What follows are compounds tested on NCI-H1650 (assay: Antiproliferative activity against human NCI-H1650 cells after 48 hrs by MTT assay). Conditions: NCI-H1650, 48 h.
Format: functional, cell-based
CCCSc1nc(NCCNC(=S)Nc2ccccc2)c2nnn(CCc3ccccc3)c2n1 showed an IC50 of 49.5 µM. CCCSc1nc(NCCNC(=S)Nc2cccnc2)c2nnn(CCc3ccccc3)c2n1 showed an IC50 of 2.38 µM. With CCCSc1nc(NCCNC(=S)Nc2ccccn2)c2nnn(CCc3ccccc3)c2n1 the IC50 was 7.62 µM. With CCCSc1nc(NCCNC(=S)Nc2ccc(Cl)cc2)c2nnn(CCc3ccccc3)c2n1 the IC50 was 13.2 µM. Work on CCCSc1nc(NCCNC(=S)Nc2cccnc2)c2nnn(CCO)c2n1 yielded an IC50 of 45.9 µM.

The compounds below were run on MKN-45 (assay: Antiproliferative activity against human MKN45 cells after 48 hrs by MTT assay). Conditions: MKN-45, 48 h.
Format: functional, cell-based
CCCSc1nc(NCCNC(=S)Nc2ccccc2)c2nnn(CCc3ccccc3)c2n1 was tested, and the IC50 was > 64 µM. In the case of CCCSc1nc(NCCNC(=S)Nc2cccnc2)c2nnn(CCc3ccccc3)c2n1, the IC50 is reported as 6.58 µM. In the case of CCCSc1nc(NCCNC(=S)Nc2ccccn2)c2nnn(CCc3ccccc3)c2n1, the IC50 is reported as 8.09 µM. CCCSc1nc(NCCNC(=S)Nc2ccc(Cl)cc2)c2nnn(CCc3ccccc3)c2n1 gave an IC50 of 37.6 µM. In the case of CCCSc1nc(NCCNC(=S)Nc2cccnc2)c2nnn(CCO)c2n1, the IC50 is reported as 25 µM.

What follows are compounds tested on A549 (assay: Antiproliferative activity against human A549 cells after 48 hrs by MTT assay). Conditions: A549, 48 h.
Format: functional, cell-based
For CCCSc1nc(NCCNC(=S)Nc2ccccc2)c2nnn(CCc3ccccc3)c2n1, the IC50 was > 64 µM. With CCCSc1nc(NCCNC(=S)Nc2cccnc2)c2nnn(CCc3ccccc3)c2n1 the IC50 was 8.23 µM. CCCSc1nc(NCCNC(=S)Nc2ccccn2)c2nnn(CCc3ccccc3)c2n1 was tested, and the IC50 was 5.91 µM. CCCSc1nc(NCCNC(=S)Nc2ccc(Cl)cc2)c2nnn(CCc3ccccc3)c2n1 gave an IC50 of 23.2 µM. For CCCSc1nc(NCCNC(=S)Nc2cccnc2)c2nnn(CCO)c2n1, the IC50 was > 64 µM.

What follows are compounds tested on GES1 (assay: Antiproliferative activity against human GES-1 cells after 48 hrs by MTT assay). Conditions: GES1, 48 h.
Format: cell-based
CCCSc1nc(NCCNC(=S)Nc2ccccc2)c2nnn(CCc3ccccc3)c2n1 showed an IC50 of 53.1 µM. CCCSc1nc(NCCNC(=S)Nc2cccnc2)c2nnn(CCc3ccccc3)c2n1 showed an IC50 of 30.3 µM. In the case of CCCSc1nc(NCCNC(=S)Nc2ccccn2)c2nnn(CCc3ccccc3)c2n1, the IC50 is reported as 23.1 µM. For CCCSc1nc(NCCNC(=S)Nc2ccc(Cl)cc2)c2nnn(CCc3ccccc3)c2n1, the IC50 was 41.2 µM. With CCCSc1nc(NCCNC(=S)Nc2cccnc2)c2nnn(CCO)c2n1 the IC50 was > 64 µM.

These compounds were tested on MGC-803 (assay: Antiproliferative activity against human MGC803 cells after 48 hrs by MTT assay). Conditions: MGC-803, 48 h.
Format: functional, cell-based
For CCCSc1nc(NCCNC(=S)Nc2ccccc2)c2nnn(CCc3ccccc3)c2n1, the IC50 was > 64 µM. Compound CCCSc1nc(NCCNC(=S)Nc2cccnc2)c2nnn(CCc3ccccc3)c2n1 has an IC50 of 16.4 µM. CCCSc1nc(NCCNC(=S)Nc2ccccn2)c2nnn(CCc3ccccc3)c2n1 showed an IC50 of 11.6 µM. With CCCSc1nc(NCCNC(=S)Nc2ccc(Cl)cc2)c2nnn(CCc3ccccc3)c2n1 the IC50 was 27.2 µM. CCCSc1nc(NCCNC(=S)Nc2cccnc2)c2nnn(CCO)c2n1 was tested, and the IC50 was > 64 µM.
